Experimental data: article PMC10817097, “Caffeic Acid Phosphanium Derivatives: Potential Selective Antitumor, Antimicrobial and Antiprotozoal Agents” (International Journal of Molecular Sciences, 2024)

Tests used:
Format in all cases: cell-based
[1] = test system: A2058 (human metastatic melanoma); assay: MTS cell proliferation/viability assay; conditions: 72 h
Procedure: (§1) The human cancer cell line HCT116 (human colorectal adenocarcinoma), HeLa (human cervical adenocarcinoma), Jurkat (human leukemic T cell lymphoma), and MDA-MB-231 (human mammary gland adenocarcinoma, triple-negative) were cultured in RPMI 1640 medium (Biosera, Kansas City, MO, USA). MCF-7 (human breast adenocarcinoma), A2058 (human metastatic melanoma), PANC-1 (human pancreatic adenocarcinoma), and NIH 3T3 (murine fibroblasts) cell lines were maintained in a growth medium consisting of high glucose Dulbecco’s Modified Eagle Medium with sodium pyruvate (Biosera, Kansas City, MO, USA). MCF-10A cell line (human mammary gland epithelial cells) was maintained in a growth medium consisting of high glucose DMEM F12 Medium (Biosera, Kansas City, MO, USA) + Suppl. (insulin, EGF-[…], HC-hydrocortisone, choleratoxin all Sigma, Steinheim, Germany). The growth medium was supplemented with a 10% fetal bovine serum, penicillin (100 IU/mL), and streptomycin (100 μg/mL) (all Invitrogen, Carlsbad, CA, USA), and cells were maintained in an atmosphere containing 5% CO2 in humidified air at 37 °C. Cell viability, estimated by trypan exclusion, was greater than 95% before each experiment.
(§2) The metabolic activity colorimetric assay (MTS) was used to determine the effects of CA (c = 10–300 µM) and compounds CAP 6, CAP 8, CAP 10, and CAP 12 (c = 1–100 µM) on the metabolic activity of several cell lines. After 72 h of incubation, 10 µL of MTS (Promega, Madison, WI, USA) was added to each well according to the CellTiter 96® AQueous One Solution Cell Proliferation Assay protocol. After a minimum of 1 h incubation, the absorbance was measured at 490 nm using the automated Cytation^TM 3 Cell Imaging Multi-Mode Reader (Biotek, Winooski, VT, USA). The absorbance of the control wells was taken as 1.0 (100%), and the results were expressed as a fold of the control. All experiments were performed in triplicate. Ideal predictive IC50 values were calculated from MTS analyses-based concentration concentration-dependent trends.

[2] = test system: HCT116 (human colorectal adenocarcinoma); assay: MTS cell proliferation/viability assay; conditions: HCT-116, 72 h
Procedure: as §1, §2

[3] = test system: HeLa (human cervical adenocarcinoma); assay: MTS cell proliferation/viability assay; conditions: 72 h
Procedure: as §1, §2

[4] = test system: Jurkat (human leukemic T cell lymphoma); assay: MTS cell proliferation/viability assay; conditions: 72 h
Procedure: as §1, §2

[5] = test system: MCF-7 (human breast adenocarcinoma); assay: MTS cell proliferation/viability assay; conditions: MCF7, MCF-7, MTS, 72 h
Procedure: as §1, §2

[6] = test system: MDA-MB-231 (human mammary gland adenocarcinoma); assay: MTS cell proliferation/viability assay; conditions: MDA-MB-231, MTS, 72 h
Procedure: as §1, §2

[7] = test system: PANC-1 (human pancreatic adenocarcinoma); assay: MTS cell proliferation/viability assay; conditions: PANC-1, MTS, 72 h
Procedure: as §1, §2

[8] = test system: MCF-10A cell line (human mammary gland epithelial cells); assay: MTS cell proliferation/viability assay, control cells; conditions: MCF-10A control cells, 72 h
Procedure: as §1, §2

[9] = test system: NIH 3T3 (murine fibroblasts); assay: as above; conditions: Mus musculus, NIH3T3, NIH 3T3 control cells, 72 h
Procedure: as §1, §2

[10] = test system: tested cancer cell lines; assay: MTS assay, span over the tested cell lines; conditions: Homo sapiens, 72 h
Procedure: as §1, §2

[11] = test system: A. lugdunensis (AcaVNAK02); assay: Amoebicidal activity assay on trophozoites; conditions: Acanthamoeba lugdunensis, 24 h of incubation
Procedure: (§3) The activity against two clinical isolates of free-living amoebae, Acanthamoeba lugdunensis (strain AcaVNAK02) and Acanthamoeba quina (strain AcaVNAK03), both belonging to the T4 genotype, was tested in vitro as previously described. The trophozoites were cultivated in 25 cm^2 tissue culture flasks under axenic conditions in peptone-yeast extract-glucose medium (PYG). The cultivation was carried out under aerobic conditions at laboratory temperature. For the experiments, a fresh 72 h culture was used. Acanthamoebae adherent to flasks represented the trophozoite form and was used in the subsequent assay. Experiments were carried out in 96-well microtiter plates under sterile conditions at 37 °C. Each well was seeded with 100 µL (2 × 10^5 cells mL^−1) of a trophozoite suspension. Then, 100 µL of a freshly prepared medium containing a tested compound at 6 different concentrations was added to all wells, except for the untreated control wells that received 100 µL of the pure medium. Each compound was tested at final concentrations of 500, 250, 125, 62.5, 31.25, and 15.6 µM. The reduction of trophozoites was recorded after 24 h by counting the surviving cells in a Bürker–Türk hemocytometer. The growth control after 24 h (amoebae in inoculum without treatment): A. lugdunensis (AcaVNAK02): 2.5 × 10^5 cells mL^−1, A. quina (AcaVNAK03): 2.1 × 10^5cells/mL comparing to initial inoculum 1 × 10^5 cells mL^−1. The viability of trophozoites was determined by trypan blue exclusion. The EC50 (effective concentration of tested compound that reduces the survival of amoebae by 50%) values were calculated by linear regression analysis using Microsoft Office Excel 2016 (Microsoft Corporation, Redmond, WA, USA) software. All experiments were performed in quadruplicate for each concentration.

[12] = test system: A. quina (AcaVNAK03); assay: Amoebicidal activity assay on trophozoites; conditions: Acanthamoeba quina, 24 h of incubation
Procedure: as §3

[13] = test system: Acanthamoeba trophozoites; assay: Amoebicidal activity assay, both strains
Procedure: as §3, with “The growth control after 24 h (amoebae in inoculum without treatment): A. lugdunensis (AcaVNAK02): 2.5 × 10^5 cells mL^−1, A. quina (AcaVNAK03): 2.1 × 10^5cells/mL comparing to initial inoculum 1 × 10^5 cells mL^−1.” left out, “The EC50 (effective concentration of tested compound that reduces the survival of amoebae by 50%) values were calculated by linear regression analysis using Microsoft Office Excel 2016 (Microsoft Corporation, Redmond, WA, USA) software. All experiments were performed in quadruplicate for each concentration.” left out

## O=C(O)C=Cc1ccc(O)c(O)c1 [CA, 3-(3,4-dihydroxyphenyl)-2-propenoic acid, reference compound]
[1]
  IC50: > 300 µM
[2]
  IC50: > 300 µM
[3]
  IC50: > 300 µM
[4]
  IC50: > 300 µM
[5]
  IC50: > 300 µM
[6]
  IC50: > 300 µM
[7]
  IC50: > 300 µM
[8]
  IC50: > 300 µM
[9]
  IC50: > 300 µM
[10]
  IC50: > 300 µM
[11]
  EC50: > 100000 µM
[12]
  EC50: 3000 ± 1510 µM
[13]; Acanthamoeba, after 24 h
  EC50: ≥ 3000 µM

## CC(=O)Oc1ccc(/C=C/C(=O)OCCCCCCCCCCCC[P+](c2ccccc2)(c2ccccc2)c2ccccc2)cc1OC(C)=O [CAP 12, P,P,P-triphenyl-12-{(2E)-3-[3,4-(diacetyloxy)penyl]prop-2-enoyloxy}dodecane-1-phosphanium bromide]
[1]
  IC50: 9 ± 0.5 µM
[2]
  IC50: 8.3 ± 0.6 µM
[3]
  IC50: 3.3 ± 1.1 µM
[5]
  IC50: 4.9 ± 0.7 µM
[6]
  IC50: 3.5 ± 0.6 µM
[7]
  IC50: > 100 µM
[8]
  IC50: 33.7 ± 1.5 µM
[9]
  IC50: 32.5 ± 0.9 µM
[10]
  IC50: 0.9 to 9.5 µM
[11]
  EC50: 3120 ± 941 µM
[12]
  EC50: 3320 ± 2060 µM

## CC(=O)Oc1ccc(/C=C/C(=O)OCCCCCCCCCC[P+](c2ccccc2)(c2ccccc2)c2ccccc2)cc1OC(C)=O [CAP 10, P,P,P-triphenyl-10-{(2E)-3-[3,4-(diacetyloxy)penyl]prop-2-enoyloxy}decane-1-phosphanium bromide]
[1]
  IC50: 9 ± 0.5 µM
[2]
  IC50: 9.2 ± 0.3 µM
[3]
  IC50: 8 ± 0.7 µM
[5]
  IC50: 9.5 ± 0.2 µM
[6]
  IC50: 4.9 ± 0.5 µM
[7]
  IC50: 91.2 ± 2.6 µM
[8]
  IC50: 31.1 ± 2.3 µM
[9]
  IC50: 28 ± 1.3 µM
[10]
  IC50: 0.9 to 9.5 µM
[11]
  EC50: 834 ± 303 µM
[12]
  EC50: 291 ± 36.8 µM

## CC(=O)Oc1ccc(/C=C/C(=O)OCCCCCC[P+](c2ccccc2)(c2ccccc2)c2ccccc2)cc1OC(C)=O [CAP 6, P,P,P-triphenyl-6-{(2E)-3-[3,4-(diacetyloxy)penyl]prop-2-enoyloxy}hexane-1-phosphanium bromide]
[1]
  IC50: 30.5 ± 1.5 µM
[2]
  IC50: 31 ± 0.4 µM
[3]
  IC50: 34 ± 1.8 µM
[4]
  IC50: 8.5 ± 0.2 µM
[5]
  IC50: 44.5 ± 0.1 µM
[6]
  IC50: 37 ± 0.3 µM
[7]
  IC50: 98.8 ± 2.4 µM
[8]
  IC50: 53.7 ± 0.2 µM
[9]
  IC50: 44.4 ± 2.6 µM
[10]
  IC50: 30.5 to 44.5 µM
[11]
  EC50: 74.2 ± 18.4 µM
[12]
  EC50: 44.1 ± 9.2 µM
[13]; comparison to compounds of ref 15
  times higher inhibitory activity than phosphanium salts of rosmarinic acid: more than 15 times

## CC(=O)Oc1ccc(/C=C/C(=O)OCCCCCCCC[P+](c2ccccc2)(c2ccccc2)c2ccccc2)cc1OC(C)=O [CAP 8, P,P,P-triphenyl-8-{(2E)-3-[3,4-(diacetyloxy)penyl]prop-2-enoyloxy}okctane-1-phosphanium bromide]
[1]
  IC50: 9.4 ± 0.3 µM
[2]
  IC50: 8.3 ± 0.6 µM
[3]
  IC50: 7.1 ± 0.3 µM
[4]
  IC50: 6.9 ± 0.3 µM
[5]
  IC50: 48.7 ± 0.1 µM
[6]
  IC50: 4.8 ± 0.5 µM
[7]
  IC50: > 100 µM
[8]
  IC50: 42.3 ± 1.1 µM
[9]
  IC50: 38.2 ± 1.8 µM
[10]
  IC50: 4.8 to 9.4 µM
[11]
  EC50: 99.8 ± 23.7 µM
[12]
  EC50: 94.1 ± 14.5 µM
